Measurements taken from patent US9006487B2, “Amine-containing lipids and uses thereof” (Massachusetts Institute of Technology, priority 2005, dated 2015).
Values joined by “and” are separate entries in the source; they are usually repeats but may differ in a detail not shown here. Identical values can stand only once.

What was measured:
[1] = test system: cos-7 cells; test: DNA transfection: luciferase expression relative to Lipofectamine 2000; assay type: cell-based; details: for luciferase expression (second part of table, values relative to LIPO2000): 300 ng of DNA per well
In short: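 Lipid/DNA complexes, 300 ng luciferase DNA per well at 2.5-25 w/w lipid:DNA, were formed in sodium acetate/Optimem and added to overnight-seeded cos-7 cells. Luciferase was measured by Bright-Glo luminescence after 48 hours and quantified against an enzyme standard curve. Values are expressed as % of Lipofectamine 2000 at 2.5 w/w.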

[2] = DNA delivery: raw luciferase expression (relative light units) of best-transfecting lipids; assay type: cell-based; details: 300 ng of DNA per well
Method: Raw values for luciferase expression (relative lights units) of best-transfecting lipids at lipid/DNA (w/w) ratios listed. 300 ng of DNA was added per well.

SMILES	luciferase expression (second part of table, values relative to LIPO2000) ([1]; lipid/DNA 2.5 w/w)	luciferase expression (second part of table, values relative to LIPO2000) ([1]; lipid/DNA 5 w/w)	luciferase expression (second part of table, values relative to LIPO2000) ([1]; lipid/DNA 10 w/w)	luciferase expression (second part of table, values relative to LIPO2000) ([1]; lipid/DNA 15 w/w)	luciferase expression (second part of table, values relative to LIPO2000) ([1]; lipid/DNA 20 w/w)	luciferase expression (second part of table, values relative to LIPO2000) ([1]; lipid/DNA 25 w/w)	Raw values for luciferase expression ([2]; lipid/DNA 2.5 w/w)	Raw values for luciferase expression ([2]; lipid/DNA 5 w/w)	Raw values for luciferase expression ([2]; lipid/DNA 10 w/w)	Raw values for luciferase expression ([2]; lipid/DNA 15 w/w)	also measured
CCCCCCCCCCCCNC(=O)CCN(CCCO)CCC(=O)NCCCCCCCCCCCC [ND20]	278.4	278.1	0.2	0.1	0.0	0.0	6868960 relative lights units and 7521540 relative lights units	–	–	–	luciferase expression, second set of columns (replicate set of data) ([1]; 1st column, no head printed (2.5 w/w by the raw values)): 84.9; luciferase expression, second set of columns (replicate set of data) ([1]; 2nd column, no head printed (5 w/w by the raw values)): 5.5; luciferase expression, second set of columns (replicate set of data) ([1]; 3rd column, no head printed (10 w/w by the raw values)): 0.1; luciferase expression, second set of columns (replicate set of data) ([1]; 4th column, no head printed (15 w/w by the raw values)): 0.0
CCCCCCCCCCCCNC(=O)CCN(CCC(=O)NCCCCCCCCCCCC)CC(C)O (stereo not shown) [ND21]	47.4	69.2	18.7	2.6	0.1	0.4	1170534 relative lights units	1213862 relative lights units	–	–	–
CCCCCCCCCCCCNC(=O)CCN(CCC(=O)NCCCCCCCCCCCC)CC(C)O (stereo not shown) [ND22]	29.2	61.7	48.0	4.4	0.4	0.2	721270 relative lights units	1083569 relative lights units	–	–	–
CCCCCCCCCCCCNC(=O)CCN(CCC(=O)NCCCCCCCCCCCC)CC(O)CO (stereo not shown) [ND24]	157.6	30.5	2.4	0.2	0.0	0.0	5256861 relative lights units	1231973 relative lights units	–	–	–
CCCCCCCCCCCCNC(=O)CCN(CCC(=O)NCCCCCCCCCCCC)C(CO)CO [ND25]	226.4	125.8	19.5	0.5	0.0	0.0	7548491 relative lights units	5088120 relative lights units	–	–	–
CCCCCCCCCCCCNC(=O)CCN(CCOCCO)CCC(=O)NCCCCCCCCCCCC [ND31]	7.7	5.6	47.6	44.9	7.6	19.7	–	–	1154404 relative lights units	936815 relative lights units	–
CCCCCCCCCCCCNC(=O)CCN(CCCCCO)CCC(=O)NCCCCCCCCCCCC [ND32]	531.2	67.9	1.1	0.1	0.0	0.0	17713202 relative lights units	2745231 relative lights units	–	–	–
CCCCCCCCCCCCNC(=O)CCN(CCCCCCO)CCC(=O)NCCCCCCCCCCCC [ND36]	135.5	72.8	84.3	31.6	0.8	0.0	4517622 relative lights units	2945357 relative lights units	2043526 relative lights units	658985 relative lights units	–
CCCCCCCCCCCCNC(=O)CCN(CCO)CCN(CCC(=O)NCCCCCCCCCCCC)CCC(=O)NCCCCCCCCCCCC [ND109]	–	–	–	–	–	–	2197484 relative lights units	2087995 relative lights units	–	–	–
CCCCCCCCCCCCCCNC(=O)CCN(CCCOC)CCC(=O)NCCCCCCCCCCCCCC [NF1]	–	–	–	–	–	–	778473 relative lights units	227587 relative lights units	–	–	–
CCCCCCCCCCCCCCNC(=O)CCN(CCOC)CCC(=O)NCCCCCCCCCCCCCC [NF10]	–	–	–	–	–	–	1192178 relative lights units	838283 relative lights units	–	–	–
CCCCCCCCCCCCCCNC(=O)CCN(CCCO)CCC(=O)NCCCCCCCCCCCCCC [NF20]	–	–	–	–	–	–	1814886 relative lights units	1801431 relative lights units	–	–	–
CCCCCCCCCCCCCCNC(=O)CCN(CCC(=O)NCCCCCCCCCCCCCC)C(CO)CO [NF25]	–	–	–	–	–	–	2473702 relative lights units	1366194 relative lights units	–	–	–
CCCCCCCCCCCCCCNC(=O)CCN(C)CCN(C)CCC(=O)NCCCCCCCCCCCCCC [NF60]	6.8	21.9	28.9	49.1	–	–	–	–	2401570 relative lights units	3739668 relative lights units	–
CCCCCCCCCCCCCCNC(=O)CCN(C)CCCN(C)CCC(=O)NCCCCCCCCCCCCCC [NF63]	–	–	–	–	–	–	1141469 relative lights units	865897 relative lights units	3031718 relative lights units	1138429 relative lights units	–
CCCCCCCCCCCCCCNC(=O)CCN(CCCN1CCOCC1)CCC(=O)NCCCCCCCCCCCCCC [NF91]	–	–	–	–	–	–	1993690 relative lights units	1670695 relative lights units	–	–	–
CCCCCCCCCCCCCCCNC(=O)CCN(CC)CCN(CC)CCC(=O)NCCCCCCCCCCCCCCC [NG61]	–	–	–	–	–	–	1452027 relative lights units	765795 relative lights units	–	–	–
CCCCCCCCCCCCCCCNC(=O)CCN(CCC(=O)NCCCCCCCCCCCCCCC)CCC1CCCN1C (stereo not shown) [NG77]	–	–	–	–	–	–	972002 relative lights units	1184771 relative lights units	–	–	–
CCCCCCCCCCCCCCCNC(=O)CCN(CCC(=O)NCCCCCCCCCCCCCCC)CCN(CCO)CCO [NG86]	–	–	–	–	–	–	1357355 relative lights units	1521687 relative lights units	1513703 relative lights units	1223360 relative lights units	–
CCCCCCCCCCCCCCCNC(=O)CCN(CCCN(CCO)CCO)CCC(=O)NCCCCCCCCCCCCCCC [NG87]	–	–	–	–	–	–	823764 relative lights units	1005875 relative lights units	–	–	–
CCCCCCCCCCCCCCCNC(=O)CCN(C)CCN(CCC(=O)NCCCCCCCCCCCCCCC)CCC(=O)NCCCCCCCCCCCCCCC [NG95]	–	–	–	–	–	–	–	–	834849 relative lights units	1208120 relative lights units	–
CCCCCCCCCCCCCCCCNC(=O)CCN(CCN(CCC(=O)NCCCCCCCCCCCCCCCC)C(C)C)C(C)C [NP62]	–	–	–	–	–	–	1443678 relative lights units	33188 relative lights units	–	–	–
CCCCCCCCCCCCCCCCNC(=O)CCN(C)CCCN(C)CCC(=O)NCCCCCCCCCCCCCCCC [NP63]	–	–	–	–	–	–	1180418 relative lights units	1543275 relative lights units	1388102 relative lights units	798342 relative lights units	–
CCCCCCCCCCCCCCCCNC(=O)CCN(CCC(=O)NCCCCCCCCCCCCCCCC)CCN(CCO)CCO [NP86]	–	–	–	–	–	–	–	–	595340 relative lights units	1323915 relative lights units	–
CCCCCCCCCCCCCCCCNC(=O)CCN(CCCN(CCO)CCO)CCC(=O)NCCCCCCCCCCCCCCCC [NP87]	–	–	–	–	–	–	–	–	1207376 relative lights units	1192838 relative lights units	–
CCCCCCCCCCCCCCCCNC(=O)CCN(CCC(=O)NCCCCCCCCCCCCCCCC)CCN(CCC(=O)NCCCCCCCCCCCCCCCC)CCC(=O)NCCCCCCCCCCCCCCCC [NP99]	–	–	–	–	–	–	3202948 relative lights units	9767 relative lights units	–	–	–
